This series concerns rodent carcinogenicity bioassays, tumor incidence. Description: CCRIS carcinogenicity studies. Particulars: Dose: 0, Dose: 0. In outline: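 Archive of carcinogenicity, mutagenicity, tumor promotion and tumor inhibition results drawn from journals, NCI reports and other sources, expert-reviewed; covers 1985-2011 and is no longer updated.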

The structures appear in SMILES notation. Active and inactive are the calls of the source. The rule behind the calls is not given here.

With `CCCCOCCOCCOCc1cc2c(cc1CCC)OCO2`, the carcinogen call is, setting by setting: (Species: MOUSE, Strain/Sex: B6C3F1/FEMALE, Route: ORAL, 1036, 2804 PPM IN DIET, TWA, 1036, 2804 PPM IN DIET, TWA) “inactive; negative”; (Species: MOUSE, Strain/Sex: B6C3F1/MALE, Route: ORAL, 1036, 2804 PPM IN DIET, TWA, 1036, 2804 PPM IN DIET, TWA) “inactive; negative”; (Species: MOUSE, Strain/Sex: CD-1/FEMALE, Route: ORAL, 0.6, 1.2% IN DIET FOR 52 WK (STUDY DURATION: 52 WK), 0.6, 1.2% IN DIET FOR 52 WK (STUDY DURATION: 52 WK), Tumor Site: Type of Lesion: LIVER: HEPATOCELLULAR ADENOMA, HEPATOCELLULAR CARCINOMA) “active; positive”; (Species: MOUSE, Strain/Sex: CD-1/FEMALE, Route: ORAL, 30, 100, 300 MG/KG/D IN DIET FOR 79 WK (STUDY DURATION: 79 WK), 30, 100, 300 MG/KG/D IN DIET FOR 79 WK (STUDY DURATION: 79 WK), Tumor Site: Type of Lesion: LIVER: HEPATOCELLULAR ADENOMA) “active; positive”; (Species: MOUSE, Strain/Sex: CD-1/MALE, Route: ORAL, 0.6, 1.2% IN DIET FOR 12 MO (STUDY DURATION: 12 MO), 0.6, 1.2% IN DIET FOR 12 MO (STUDY DURATION: 12 MO), Tumor Site: Type of Lesion: LIVER: HEPATOCELLULAR ADENOMA, HEPATOCELLULAR CARCINOMA, HEMANGIOENDOTHELIAL SARCOMA (SMALL), HEMANGIOENDOTHELIAL SARCOM) “active; positive”; (Species: MOUSE, Strain/Sex: CD-1/MALE, Route: ORAL, 0.6, 1.2% IN DIET FOR 52 WK (STUDY DURATION: 52 WK), 0.6, 1.2% IN DIET FOR 52 WK (STUDY DURATION: 52 WK), Tumor Site: Type of Lesion: LIVER: HEPATOCELLULAR ADENOMA, HEPATOCELLULAR CARCINOMA) “active; positive”. The carcinogen call was “active; positive” (Species: MOUSE, Strain/Sex: CD-1/MALE, Route: ORAL, 30, 100, 300 MG/KG/D IN DIET FOR 79 WK (STUDY DURATION: 79 WK), 30, 100, 300 MG/KG/D IN DIET FOR 79 WK (STUDY DURATION: 79 WK), Tumor Site: Type of Lesion: LIVER: HEPATOCELLULAR ADENOMA); “inactive; negative” (Species: RAT, Strain/Sex: F344/FEMALE, Route: ORAL, 0.5, 1% IN DIET FOR 2 YR (STUDY DURATION: 110 WK), 0.5, 1% IN DIET FOR 2 YR (STUDY DURATION: 110 WK)); “active; positive” (Species: RAT, Strain/Sex: F344/FEMALE, Route: ORAL, 0.6, 1.2, 2.4% IN DIET FOR 96 WK (STUDY DURATION: 96 WK), 0.6, 1.2, 2.4% IN DIET FOR 96 WK (STUDY DURATION: 96 WK), Tumor Site: Type of Lesion: LIVER: HEPATOCELLULAR ADENOMA, HEPATOCELLULAR CARCINOMA); “inactive; negative” (Species: RAT, Strain/Sex: F344/FEMALE, Route: ORAL, 5000, 10000 PPM IN DIET, 5000, 10000 PPM IN DIET); “inactive; negative” (Species: RAT, Strain/Sex: F344/MALE, Route: ORAL, 0.5, 1% IN DIET FOR 2 YR (STUDY DURATION: 110 WK), 0.5, 1% IN DIET FOR 2 YR (STUDY DURATION: 110 WK)); “active; positive” (Species: RAT, Strain/Sex: F344/MALE, Route: ORAL, 0.6, 1.2, 2.4% IN DIET FOR 95 WK (STUDY DURATION: 95 WK), 0.6, 1.2, 2.4% IN DIET FOR 95 WK (STUDY DURATION: 95 WK), Tumor Site: Type of Lesion: LIVER: HEPATOCELLULAR ADENOMA, HEPATOCELLULAR CARCINOMA). In addition, the carcinogen call by setting is: (Species: RAT, Strain/Sex: F344/MALE, Route: ORAL, 5000, 10000 PPM IN DIET, 5000, 10000 PPM IN DIET) “inactive; negative”; (Species: RAT, Strain/Sex: SPRAGUE-DAWLEY/FEMALE, Route: ORAL, 30, 100, 500 MG/KG/D IN DIET FOR 104-105 WK (STUDY DURATION: 105 WK), 30, 100, 500 MG/KG/D IN DIET FOR 104-105 WK (STUDY DURATION: 105 WK)) “inactive; negative”; (Species: RAT, Strain/Sex: SPRAGUE-DAWLEY/MALE, Route: ORAL, 30, 100, 500 MG/KG/D IN DIET FOR 104-105 WK (STUDY DURATION: 105 WK), 30, 100, 500 MG/KG/D IN DIET FOR 104-105 WK (STUDY DURATION: 105 WK)) “inactive; negative”.

Take `Clc1ccccc1`: the carcinogen call is “inactive; negative” (Species: MOUSE, Strain/Sex: B6C3F1/FEMALE, Route: GAVAGE, 60, 120 MG/KG IN CORN OIL 5 D/WK FOR 103 WK (STUDY DURATION: 105 WK), 60, 120 MG/KG IN CORN OIL 5 D/WK FOR 103 WK (STUDY DURATION: 105 WK)); “inactive; negative” (Species: MOUSE, Strain/Sex: B6C3F1/MALE, Route: GAVAGE, 30, 60 MG/KG IN CORN OIL 5 D/WK FOR 103 WK (STUDY DURATION: 105 WK), 30, 60 MG/KG IN CORN OIL 5 D/WK FOR 103 WK (STUDY DURATION: 105 WK)); “inactive; negative” (Species: RAT, Strain/Sex: F344/FEMALE, Route: GAVAGE, 60, 120 MG/KG IN CORN OIL 5 D/WK FOR 103 WK (STUDY DURATION: 105 WK), 60, 120 MG/KG IN CORN OIL 5 D/WK FOR 103 WK (STUDY DURATION: 105 WK)); “equivocal” (Species: RAT, Strain/Sex: F344/MALE, Route: GAVAGE, 60, 120 MG/KG IN CORN OIL 5 D/WK FOR 103 WK (STUDY DURATION: 105 WK), 60, 120 MG/KG IN CORN OIL 5 D/WK FOR 103 WK (STUDY DURATION: 105 WK), Tumor Site: Type of Lesion: LIVER: NEOPLASTIC NODULE, NEOPLASTIC NODULE OR CARCINOMA).

For the compound `O=C1O[C@H]([C@H](O)CO)C(O)=C1O`, the carcinogen call runs as follows: (Species: MOUSE, Strain/Sex: B6C3F1/FEMALE, Route: ORAL, 2.5, 5% IN DRINKING WATER FOR 96 WK (STUDY DURATION: 110 WK), 2.5, 5% IN DRINKING WATER FOR 96 WK (STUDY DURATION: 110 WK)) “inactive; negative”; (Species: MOUSE, Strain/Sex: B6C3F1/MALE, Route: ORAL, 1.25, 2.5% IN DRINKING WATER FOR 96 WK (STUDY DURATION: 110 WK), 1.25, 2.5% IN DRINKING WATER FOR 96 WK (STUDY DURATION: 110 WK)) “inactive; negative”; (Species: RAT, Strain/Sex: F344/FEMALE, Route: ORAL, 1.25%, 2.5% IN TAP DRINKING WATER FOR 104 WK (STUDY DURATION: LIFESPAN), 1.25%, 2.5% IN TAP DRINKING WATER FOR 104 WK (STUDY DURATION: LIFESPAN)) “inactive; negative”; (Species: RAT, Strain/Sex: F344/MALE, Route: ORAL, 1.25%, 2.5% IN TAP DRINKING WATER FOR 104 WK (STUDY DURATION: LIFESPAN), 1.25%, 2.5% IN TAP DRINKING WATER FOR 104 WK (STUDY DURATION: LIFESPAN)) “inactive; negative”.

In the case of `O=[N+]([O-])c1ccc2ccc3cccc4c3c2c1C1OC41` (configuration not stated), the carcinogen call (Species: MOUSE, Strain/Sex: B6C3F1/FEMALE, Route: INTRAPERITONEAL, 7 NMOL (TOTAL DOSE), 1/7, 2/7 AND 4/7 OF THE TOTAL DOSE ADMINISTERED WITHIN 24 HR OF BIRTH AND AT 8 AND 15 D OF AGE) is “inactive; negative” and the carcinogen call (Species: MOUSE, Strain/Sex: B6C3F1/MALE, Route: INTRAPERITONEAL, 7 NMOL (TOTAL DOSE), 1/7, 2/7 AND 4/7 OF THE TOTAL DOSE ADMINISTERED WITHIN 24 HR OF BIRTH AND AT 8 AND 15 D OF AGE) was “inactive; negative”.

Take `Clc1ccc(Cl)c(-c2cc(Cl)ccc2Cl)c1`: the carcinogen call is, setting by setting: (Species: MOUSE, Strain/Sex: STRAIN-A/FEMALE, Route: INTRAPERITONEAL, 0.1, 0.2 UMOL/UL OF DMSO 5, 10 AND 20 µL GIVEN ON DAYS 4, 8 AND 15 AFTER BIRTH, RESPECTIVELY (STUDY DURATION: 28 WK), 0.1, 0.2 UMOL/UL OF DMSO 5, 10 AND 20 µL GIVEN ON DAYS 4, 8 AND 15 AFTER BIRTH, RESPECTIVELY (STUDY DURATION: 28 WK)) “inactive; negative”; (Species: MOUSE, Strain/Sex: STRAIN-A/MALE, Route: INTRAPERITONEAL, 0.1, 0.2 UMOL/UL OF DMSO 5, 10 AND 20 µL GIVEN ON DAYS 4, 8 AND 15 AFTER BIRTH, RESPECTIVELY (STUDY DURATION: 28 WK), 0.1, 0.2 UMOL/UL OF DMSO 5, 10 AND 20 µL GIVEN ON DAYS 4, 8 AND 15 AFTER BIRTH, RESPECTIVELY (STUDY DURATION: 28 WK)) “inactive; negative”.

The values are drawn from PubChem BioAssay AID1259411 (Chemical Carcinogenesis Research Information System (CCRIS), 2018).
